The source made the active and inactive calls.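 Rule for the calls: active = ATP loss reduced by over 30% versus thapsigargin-only wells, at any thapsigargin dose tested; inactive = the rest.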
Tested on: C17.2 differentiated neurons, thapsigargin death, ATPlite, 24 h
Experiment: ER stress death protection in C17.2 cells – cell-based, differentiated mouse neural stem C17.2, ATP luminescence, SAR follow-up (AID 1353)
Conditions: at 25 µM, stronger effect = higher value
[1] = measured here: survival at thapsigargin 5 uM
[2] = measured here: survival at thapsigargin 15 uM

SMILES	survival	survival [1] [%]	survival [2] [%]
COc1ccc(C2CC(=O)C3=C(C2)Nc2ccccc2NC3c2cccc(Br)c2)cc1OC (stereo not drawn)	7% (inactive)	67	0
COc1ccc(C2CC(=O)C3=C(C2)Nc2ccccc2NC3c2cccc(C(F)(F)F)c2)cc1OC (stereo not drawn)	5% (inactive)	59	0
CC1(C)CC(=O)C2=C(C1)Nc1ccccc1NC2c1ccc(-c2ccccc2)cc1 (stereo not drawn)	1% (inactive)	45	0
CCCOc1ccc(C2Nc3ccccc3NC3=C2C(=O)CC(c2ccc(OC)c(OC)c2)C3)cc1 (stereo not drawn)	20% (inactive)	62	1
CCOc1cccc(C2Nc3ccccc3NC3=C2C(=O)CC(c2ccc(OC)cc2)C3)c1 (stereo not drawn)	1% (inactive)	83	0
CCOc1cc(C2Nc3ccccc3NC3=C2C(=O)CC(c2ccc(OC)cc2)C3)cc(Cl)c1O (stereo not drawn)	1% (inactive)	79	0
COc1ccc(C2CC(=O)C3=C(C2)Nc2ccccc2NC3c2cccc(Oc3ccccc3)c2)cc1OC (stereo not drawn)	50%	68	1
COc1ccc(C2CC(=O)C3=C(C2)Nc2ccccc2NC3c2cc(C)ccc2C)cc1 (stereo not drawn)	2% (inactive)	69	0
CSc1ccc(C2Nc3ccccc3NC3=C2C(=O)CC(c2ccccc2)C3)cc1 (stereo not drawn)	2% (inactive)	86	0
COc1ccc(C2CC(=O)C3=C(C2)Nc2ccccc2NC3c2ccccc2C(F)(F)F)cc1OC (stereo not drawn)	12% (inactive)	55	1
O=C1CC(c2ccccc2)CC2=C1C(c1c(F)cccc1Cl)Nc1ccccc1N2 (stereo not drawn)	10% (inactive)	87	1
